Test system: MRSA (methicillin resistant Staphylococcus aureus)
Experiment: Antibacterial test: survival ratio of MRSA versus cultivation time in medium
Format: cell-based
Conditions: physiological saline, dilution 10^-3, pH 12.7
Procedure: Antibacterial tests were then performed. The relation between the cultivation time (minute) of MRSA in a cultivation medium and the survival ratio (%) of the bacteria was measured in the test shown in Table 1. The cultivation media of MRSA were physiological saline ([…]), physiological saline containing the bactericide for MRSA of the invention ([…]) and physiological saline containing a reagent NaOH (medium 3). The degree of dilution of both the bactericide for MRSA and the reagent (NaOH) was 10^−3, and pH of both solutions was 12.7.

In the case of `[Na+].[OH-]` [Medium 3, NaOH], the “survival ratio of the bacteria” value (cultivation time 0 minutes) was 100%, the “survival ratio of the bacteria” value (cultivation time 15 minutes) was “Measurement was impossible” and the “survival ratio of the bacteria” value (cultivation time 30 minutes) was 0.0057%.

Source: patent publication US20070031507A1, “Bactericide for MRSA” (priority 2001, published 2007)
